Source: US12546707B2, “Validation of natural matrices for therapeutic use” (priority 2024, dated 2026)

Tested on: primary human chondrocytes (HC) exposed to IL1B
Assay: In vitro cell assay representative of osteoarthritis (transcriptomics, IPA Z-score of biological functions)
Assay type: cell-based
Conditions: chondrocytes with IL1B 5 ng/ml, vs pathological state control
Description: Each time one of the batch solutions was added, fresh IL1B [5 ng/ml] was also added to the medium. The time schedule used for experimental setting is as follows: [table] At the end of described treatment periods, cells were washed with 100 μl PBS and lysed and collected in RLT buffer (Qiagen, 1053393) added with β-mercaptoethanol (Sigma, M3148) and DX reagent (Qiagen, 19088) for gene expression analysis experiments. Total RNA was extracted from cells lysates using an QIAsymphony RNA Kit (Qiagen,) with the QIAsymphony SP instrument (Qiagen). The quality and quantity of RNA was determined by A230, A260, A280 and A320 measurements on VarioskanTM LUX multimode microplate reader (Thermo ScientificTM). Integrity of RNA was checked using a 2100 expert_Eukaryote Total RNA Nano Kit (Agilent). Whole transcriptome expression profile was evaluated using a Human ClariomTM S Pico Assay HT (Applied Biosystems, ThermoFisher Scientific) on a GeneTitan MC Instrument (Applied Biosystems, ThermoFisher Scientific), following the manufacturer's instructions. […] Arrays were washed, stained and then scanned using the GeneTitan MC Instrument (Applied Biosystems, ThermoFisher Scientific) and CEL Intensity files were generated by Affymetrix GeneChip Command Console Software (AGCC, ThermoFisher Scientific). […] Ingenuity Pathways Analysis (IPA) (QIAGEN \Inc., https://www.qiagenbioinformatics.com/products/ingenuitypathway-analysis) was used, for each investigated batch to evaluate modulations of gene expression relevant for effects of interest. The patho-physiological features of state-of-the-art “Osteoarthritis condition” were considered with particular attention to the following areas involved: [table] This knowledge was used to interrogate IPA via the “IPA Bioprofiler” tool, using the following key words: osteoarthritis, arthropathy, formation of cartilage tissue, destruction of cartilage tissue, damage of cartilage, connective tissue disorder, inflammation of joint, immune cell trafficking, oxidative stress and hyaluronic acid. The use of “IPA Bioprofiler” allowed to identify clusters of expressed genes causally linked to each of the identified biological functions and the specific molecular pathway underpinning them. […] Modulation of expressed genes were shown in different intensities of blue (signifying down-modulation) or red (signifying up-modulation). The resulting expected calculated impact, based on the literature, on the related biofunctions was determined by “IPA Molecule Activity Predictor” tool (MAP) and resumed in a heatmap visualization. The colour and intensity thereof were transformed into numerical values.

[1] = hallmark Protection from anatomical damage

CC1(C)O[C@@H]2C[C@H]3[C@@H]4CCC5=CC(=O)C=C[C@]5(C)[C@@]4(F)[C@@H](O)C[C@]3(C)[C@]2(C(=O)CO)O1 [Triamcinolone acetonide, Triamcinolone Acetonide]
Z-score values: Skeletal and muscular system development and function → articular dysfunction → joint space → Formation of cartilage tissue (hallmark Induction of proliferation): −0.31 | Z-score values: Organismal injury and abnormalities → joint inflammation and swelling, difficulty moving a joint → Osteoarthritis [1]: −0.15 | Z-score values: Skeletal and muscular system function → difficulty moving a joint → Non-traumatic arthropathy [1]: −0.17 | Z-score values: Inflammatory disease → inflammation and nociceptions → Inflammation of joint (hallmark Reduction of inflammation): −0.26
